Data from the CheMixHub viscosity set.
Values joined by “and” are separate entries in the source; they are usually repeats but may differ in a detail not shown here. Equal entries are not always repeated.

Assay: xn = mol fraction of the nth substance listed

CC(=O)O + Cc1ccc(C)cc1
viscosity, 101 kPa
Settings	x2 = 0.0592	x2 = 0.124	x2 = 0.1952	x2 = 0.2738	x2 = 0.3615	x2 = 0.4596	x2 = 0.569	x2 = 0.6934	x2 = 0.8354
303.15 K	0.8817 mPa·s and 0.882 mPa·s	0.7951 mPa·s and 0.795 mPa·s	0.7314 mPa·s and 0.731 mPa·s	0.6755 mPa·s and 0.676 mPa·s	0.6446 mPa·s and 0.645 mPa·s	0.6109 mPa·s and 0.611 mPa·s	0.5923 mPa·s and 0.592 mPa·s	0.58 mPa·s and 0.58 mPa·s	0.571 mPa·s and 0.571 mPa·s
308.15 K	0.8236 mPa·s	0.7455 mPa·s	0.685 mPa·s	0.6373 mPa·s	0.6095 mPa·s	0.5737 mPa·s	0.5606 mPa·s	0.5476 mPa·s	0.5393 mPa·s
313.15 K	0.7876 mPa·s	0.7172 mPa·s	0.6617 mPa·s	0.6171 mPa·s	0.5816 mPa·s	0.5522 mPa·s	–	0.5233 mPa·s	–
318.15 K	0.7347 mPa·s	0.6716 mPa·s	0.6249 mPa·s	0.5798 mPa·s	0.5483 mPa·s	0.5222 mPa·s	0.5018 mPa·s	0.4927 mPa·s	0.4862 mPa·s
323.15 K	0.6874 mPa·s and 0.687 mPa·s	0.6339 mPa·s and 0.634 mPa·s	0.5878 mPa·s and 0.588 mPa·s	0.5468 mPa·s and 0.547 mPa·s	0.5158 mPa·s and 0.516 mPa·s	0.4913 mPa·s and 0.491 mPa·s	0.4775 mPa·s and 0.478 mPa·s	0.4674 mPa·s and 0.467 mPa·s	0.4608 mPa·s and 0.461 mPa·s

ClCCl + Cc1ccc(C)cc1
101 kPa
Settings	viscosity [mPa·s]
293.15 K, x1 = 0.2949	0.59
293.15 K, x1 = 0.4409	0.561
293.15 K, x1 = 0.5522	0.535
293.15 K, x1 = 0.609	0.522
293.15 K, x1 = 0.6936	0.504
293.15 K, x1 = 0.7459	0.492
293.15 K, x1 = 0.8125	0.476
293.15 K, x1 = 0.8558	0.468
298.15 K, x1 = 0.2347	0.568
298.15 K, x1 = 0.3846	0.541
298.15 K, x1 = 0.4518	0.529
298.15 K, x1 = 0.5662	0.504
298.15 K, x1 = 0.6375	0.488
298.15 K, x1 = 0.6972	0.476
298.15 K, x1 = 0.7342	0.467
298.15 K, x1 = 0.7892	0.457
298.15 K, x1 = 0.8376	0.451
303.15 K, x1 = 0.2286	0.539
303.15 K, x1 = 0.3627	0.515
303.15 K, x1 = 0.4362	0.502
303.15 K, x1 = 0.5371	0.483
303.15 K, x1 = 0.624	0.463
303.15 K, x1 = 0.6948	0.448
303.15 K, x1 = 0.7643	0.433
303.15 K, x1 = 0.818	0.427

CC(=O)O + Cc1cccc(C)c1
viscosity [mPa·s], 101.3 kPa
Settings	x2 = 0.1087	x2 = 0.218	x2 = 0.2726	x2 = 0.3467	x2 = 0.4518	x2 = 0.5763	x2 = 0.6567	x2 = 0.7671	x2 = 0.8589
298.15 K	0.952	0.809	0.753	0.7	0.648	0.618	0.603	0.591	0.579
303.15 K	0.861	0.746	0.707	0.655	0.615	0.582	0.568	0.554	0.545
313.15 K	0.777	0.665	0.624	0.58	0.543	0.519	0.507	0.501	0.494
323.15 K	0.687	0.59	0.554	0.518	0.483	0.466	0.459	0.451	0.444

ClCCl + Cc1cccc(C)c1
101 kPa
Settings	viscosity [mPa·s]
293.15 K, x1 = 0.2258	0.583
293.15 K, x1 = 0.4249	0.553
293.15 K, x1 = 0.4896	0.541
293.15 K, x1 = 0.5542	0.528
293.15 K, x1 = 0.6288	0.512
293.15 K, x1 = 0.769	0.482
293.15 K, x1 = 0.8151	0.472
298.15 K, x1 = 0.2398	0.55
298.15 K, x1 = 0.4075	0.527
298.15 K, x1 = 0.4997	0.511
298.15 K, x1 = 0.5622	0.501
298.15 K, x1 = 0.6288	0.485
298.15 K, x1 = 0.6891	0.474
298.15 K, x1 = 0.7634	0.461
298.15 K, x1 = 0.8183	0.451
298.15 K, x1 = 0.8586	0.446
303.15 K, x1 = 0.3947	0.501
303.15 K, x1 = 0.4925	0.483
303.15 K, x1 = 0.5836	0.466
303.15 K, x1 = 0.6551	0.453
303.15 K, x1 = 0.7164	0.441
303.15 K, x1 = 0.7934	0.428
303.15 K, x1 = 0.8418	0.421
303.15 K, x1 = 0.8669	0.417

CC(=O)O + Cc1ccccc1
viscosity [mPa·s]
Settings	293.15 K	303.15 K	313.15 K	323.15 K
101 kPa, x2 = 0.0642	–	–	0.9448	0.8122
101 kPa, x2 = 0.2052	–	–	0.6513	0.4846
101 kPa, x2 = 0.7929	–	–	0.4859	0.4171
101.33 kPa, x2 = 0.022	1.143	0.9772	0.8709	0.7709
101.33 kPa, x2 = 0.0569	1.06	0.907	0.8111	0.7288
101.33 kPa, x2 = 0.1191	0.9245	0.8216	0.731	0.641
101.33 kPa, x2 = 0.1879	0.8359	0.741	0.6554	0.59
101.33 kPa, x2 = 0.2626	0.7694	0.6753	0.603	0.5446
101.33 kPa, x2 = 0.352	0.7293	0.6216	0.561	0.5072
101.33 kPa, x2 = 0.4459	0.6757	0.5903	0.522	0.474
101.33 kPa, x2 = 0.4893	0.6542	0.5766	0.5131	0.4647
101.33 kPa, x2 = 0.5579	0.6349	0.5578	0.5022	0.4559
101.33 kPa, x2 = 0.6302	0.6233	0.5464	0.491	0.4486
101.33 kPa, x2 = 0.6817	0.6144	0.5382	0.4828	0.4384
101.33 kPa, x2 = 0.7391	0.6055	0.5304	0.4757	0.4319
101.33 kPa, x2 = 0.861	0.5941	0.5201	0.4619	0.42
101.33 kPa, x2 = 0.9262	0.588	0.513	0.4611	0.4194
101.33 kPa, x2 = 0.9645	0.5842	0.5088	0.4574	0.4163
